This is an account of results in patent US4628064A, “Epinine and the therapeutic use thereof” (SIMES, Societa Italiana Medicinali e Sintetici S.p.A., priority 1983, dated 1986).

The test system of one assay is anesthetized dog. Put plainly: Hemodynamic parameters in the anesthetized dog after intravenous infusion. In kind it is in vivo. Particulars: for effect on the heart rate: doses of 1, 2.5 and 5 μg/kg/min, in words; for Average arterial pressure / Heart rate / Renal art. flow / Renal resistances: measured 5 minutes after infusion, average ± SE. From the text:
Dopamine and epinine have been compared after intravenous infusion at different doses in the anesthetized dog.

Assay [1] concerns electrically stimulated median arteria of rabbit ear. Put plainly: Inhibition of contraction induced by electrical stimulation, median arteria of rabbit ear. Particulars: for IC50: Oryctolagus cuniculus, concentrations between 0.01 and 10 μM, read-out: ED50 in inhibiting the contraction induced by electrical stimulation.
The conditions of assay [2]: less potent than adrenaline; cited from earlier work.

Regarding `CNCCc1ccc(O)c(O)c1` [epinine, N-methyl-3,4-dihydroxyphenethylamine], the “effect on the heart rate” value in the assay with anesthetized dog is “moderate but significant reduction”. Moreover, in the assay with anesthetized dog (infusion 0.50 μg/kg/min), the Average arterial pressure is 136 ± 9 mmHg, the Heart rate is listed as 164 ± 10, the Renal art. flow came to 153.5 ± 18.5 mL/min and the Renal resistances turned out to be 0.990 ± 0.145 mmHg/ml/min. In the assay on anesthetized dog (infusion 1.00 μg/kg/min), the Average arterial pressure is on record as 136 ± 8 mmHg, the Heart rate is recorded as 161 ± 11, the Renal art. flow was 157.5 ± 28.1 mL/min and the Renal resistances came to 0.971 ± 0.185 mmHg/ml/min. In the assay with anesthetized dog (infusion 2.50 μg/kg/min), this compound gave an Average arterial pressure of 135 ± 7 mmHg, a Heart rate of 156 ± 12, a Renal art. flow of 159.8 ± 29.3 mL/min and a Renal resistances of 0.954 ± 0.183 mmHg/ml/min. For the same compound, in the assay with anesthetized dog (infusion 5.00 μg/kg/min), the Average arterial pressure was 139 ± 6 mmHg, the Heart rate is on record as 149 ± 11, the Renal art. flow turned out to be 164.3 ± 29.7 mL/min and the Renal resistances is listed as 0.965 ± 0.181 mmHg/ml/min. Moreover, the IC50 in assay [1] amounted to 0.077 µM. Further, the “activity relative to dopamine (presynaptic DA2 receptors)” value in assay [1] (higher than that of dopamine) was determined as 30 times. In addition, the “pressor potency relative to adrenaline” value in assay [2] is listed as “about ten”.
As for `NCCc1ccc(O)c(O)c1` [dopamine, reference compound], in the assay on anesthetized dog, the “effect on the heart rate” value is given as “slightly increased”. Also, in the assay with anesthetized dog (infusion 1.00 μg/kg/min), the Average arterial pressure was found to be 106 ± 7 mmHg, the Heart rate was found to be 144 ± 10, the Renal art. flow stood at 127 ± 20.8 mL/min and the Renal resistances turned out to be 1.120 ± 0.149 mmHg/ml/min. In the assay on anesthetized dog (infusion 2.50 μg/kg/min), this compound displayed an Average arterial pressure of 105 ± 6 mmHg, a Heart rate of 146 ± 8, a Renal art. flow of 132 ± 21.0 mL/min and a Renal resistances of 1.053 ± 0.146 mmHg/ml/min. In the assay with anesthetized dog (infusion 5.00 μg/kg/min), this compound had an Average arterial pressure of 109 ± 6 mmHg, a Heart rate of 151 ± 8, a Renal art. flow of 122.9 ± 19.8 mL/min and a Renal resistances of 1.136 ± 0.261 mmHg/ml/min. Further, in assay [1], the IC50 amounted to 2.39 µM.
